We go through one compound from patent US6613358B2, “Sustained-release composition including amorphous polymer” (priority 1998, dated 2003).

One may read the IC50 as the point on the concentration scale where inhibition reaches its midpoint.

In series [1] the test system is COS-7 cells. Nature of the series: Transfection of plasmid pRSV400luc, luciferase activity. In kind it is cell-based, green monkey. The settings on record: without liposomes or helper lipids; serum-containing medium. The source says: The plasmid used was pRSV400luc. It was obtained from Dr. David Gordon Div. Endocrinology, University of Colorado School of Medicine, Denver, Colo. It was propagated in Escherichia coil strain DH5a (ATCC), isolated by a standard alkaline-SDS Iysis procedure, and purified twice by isopycnic centrifugation on CsCl gradients (Sambrook et al, Molecular Cloning: A Laboratory Manual (Cold Spring Harbor Laboratory) (1989). COS-7 cells at approximately 50,000 cells per 60 mm diameter plate (Falcon) were used for transfection. Control experiments were done with Lipofectamine (GIBCO/Life Technologies, Gaithersburg, Md.).
In 200 total μl of serum-free medium, plasmid (20 μg) and Lipofectamine or arginine dodecyl ester were mixed and allowed to interact for 45 minutes. […] Plates with cells were washed with serum-free medium. Then, 1 mL serum-free medium was added to plates already containing 2 mL serum-free medium and the plates were incubated at 37° C. for 4 hours. […]
After allowing cells to grow and express gene product for 36-50 hours, the cells were harvested. […] Intensity of luminescence should be proportional to the amount of expressed luciferase and, therefore, the efficiency of transfection. “Background” is the reading from just the substrate mixture on the luminometer before addition of cell lysate. […] Any reading over 100 units is considered significant.

The subject of series [2] is COS-7 cells. Nature of the series: Cytotoxicity, MTS cell proliferation assay. The series is classed as cell-based, green monkey. The protocol:
(§1) The cytotoxicity of arginine dodecyl ester was investigated in cell culture with two types of cells (see Cory et al, Cancer Commun., 3, 207-212 (1991)): CCRF-CEM cells, a human T-cell leukemia cell line that grows in suspension (obtained from the American Type Culture Collection, ATCC); and a green monkey kidney cell line (COS-7) that grows in monolayers (also obtained from ATCC). For comparison, the cells were also exposed to […] bromide (DTAB) (Sigma).
Cells were plated into 96-well plates (Corning) in a total of 200 μL Dulbecco's modified minimal essential medium for COS-7 cells, RPMI 1640 for CEM cells, supplemented with penicillin G (50 U/ml), streptomycin sulfate (50 μg/ml), and 10% fetal calf serum, at 10,000 cells/well for COS-7 and 50,000 cells/well for CEM cells. The plates were incubated at 37° C. for 24 hours after plating. The cells were then exposed to various concentrations of the detergents. Each detergent concentration was used in 8 replicate wells. After 2-6 hours, media/detergent solutions were aspirated, and the wells were washed twice with PBS. For CEM suspension cells, centrifugation of the suspension at 1000× g for 5 min between each wash was required. […] After 72 hours, cell proliferation was determined using the Promega CellTiter 96 AQueous Non-Radioactive Cell Proliferation Assay. […]
For orientation: Tetrazolium assays rely on reduction of a dye to a coloured formazan, in cell work by metabolically active cells.

Another series relates to CCRF-CEM cells. In words: Cytotoxicity, MTS cell proliferation assay. In kind it is cell-based, human. The protocol: as §1
Cells were plated into 96-well plates (Corning) in a total of 200 μL Dulbecco's modified minimal essential medium for COS-7 cells, RPMI 1640 for CEM cells, supplemented with penicillin G (50 U/ml), streptomycin sulfate (50 μg/ml), and 10% fetal calf serum, at 10,000 cells/well for COS-7 and 50,000 cells/well for CEM cells. The plates were incubated at 37° C. for 24 hours after plating. The cells were then exposed to various concentrations of the detergents. Each detergent concentration was used in 8 replicate wells. After 2-6 hours, media/detergent solutions were aspirated, and the wells were washed twice with PBS. For CEM suspension cells, centrifugation of the suspension at 1000× g for 5 min between each wash was required. After washing, 200 μL of fresh medium were added, and the cells were incubated for 72 hours. After 72 hours, cell proliferation was determined using the Promega CellTiter 96 AQueous Non-Radioactive Cell Proliferation Assay.

Series [3] in a line: Surface tension, critical micelle concentration. The series is classed as physicochemical. The settings on record: in 0.1 N HCl. The protocol:
Surface tension was measured using a Fisher surface tensiometer. Briefly, a platinum iridium ring with a diameter of 6 cm was lowered into the appropriate dilution of detergent in 0.1 N HCl. Surface tension was read at the point where the force on the ring upwards caused the ring to break contact with the liquid surface.

Molecules are shown by their SMILES. Where “and” joins values, the source holds several entries; their conditions need not be identical. Equal entries are not always repeated.

For the compound `CCCCCCCCCCCCOC(=O)[C@@H](N)CCCNC(=N)N` [arginine dodecyl ester], the “transfection of the plasmid” value in the series with COS-7 cells [1] was “promoted transfection of the plasmid in a concentration and time dependent manner”. Moreover, the “toxicity relative to DTAB” value was “approximately two-fold less toxicity” with COS-7 cells [2] and “seven-fold less toxicity” in the series on CCRF-CEM cells. Further, the IC50 in the series on CCRF-CEM cells (Homo sapiens, 2-6 hours exposure, 72 hours incubation, read-out: IC50 (half-maximal growth inhibition)) came to 150 µM. In series [3], the “critical micelle concentration (cmc)” value was “approximately 0.3 mM and ~0.10 mg/ml”.
